Source: US20140120167A1, “MULTIFUNCTIONAL CHEMO- AND MECHANICAL THERAPEUTICS” (WILLIAM MARSH RICE UNIVERSITY, priority 2012, published 2014)

How the values were obtained:
[1] = system: HN31 squamous carcinoma cells; assay: Short-term complex viability (RRV, Trypan Blue exclusion and cell concentration) 72 h after treatment; format: cell-based, human; details: for increase of cancer cell viability with plain (non-conjugated) nanocarriers compared with C225-conjugated carriers: GNP-C225 + PNB; for drug concentration required, drugs administered alone, to bring complex viability of cancer cells to the levels of PNB-enhanced release: no PNB
Method: Short term response in vitro to co-localized administration of drug nanocarriers, GNPs and laser pulses. We used EGFR-positive HN31 (cancer) cells and EGFR-negative NOM9 (normal) cells. […] After incubation, GNPs and drug carriers were washed off. […] PNB lifetime was obtained for individual cells. The short-term viability was evaluated 72 hours after the treatment of samples as a complex viability parameter RRV that included the viability level V1 (measured in % with Trypan Blue exclusion test) and the cell concentration C: RRV=C/C0*V1,*100% , where C0 is the cell concentration in the intact sample.
The ability of the PNB mechanism to overcome drug resistance and to reduce non-specific toxicity was evaluated with two common drugs and carrier types. Water-soluble doxorubicin was encapsulated into PEG-coated 90 nm Doxil liposomes that were conjugated with anti-EGFR antibody, C225 (L-Dox-C225). Non-soluble paclitaxel was loaded into 14 nm micelles conjugated to the same antibody (M-Ptx-C225). Each type of drug-loaded nanocarrier was administered separately with gold NP-C225 conjugates. Cancer (HN31) and normal (NOM9) cells were incubated identically with NP-C225 and nanocarriers. Drug doses were reduced to the level that provided relatively high viability of both cell types when treated with nanocarriers alone (without PNBs).
After incubation, NPs and nanocarriers were washed off, the cells were exposed to a single laser pulse (70 ps, 532 nm, 40 mJ cm^−2) and the PNB lifetime was obtained for individual cells. […] The cell concentration and viability were measured at 72 hours after the PNB generation as the complex viability parameter that was normalized by that in intact cells (FIG. 8). […] (FIGS. 8a and 8b).
Short-term therapeutic response to quadrapeutics and other treatments in vitro. […] The radiation treatment was administered within 60 min after PNB generation, i.e. when the intracellular concentration of the released drug was close to the maximal.

HN31 cells = assay: Clonogenic test (surviving fraction), cancer cells; format: cell-based, human; details: Dox 2 μg mL^−1 or Ptx 33 ng mL^−1 + GNP 2.4×10^10 mL^−1 + laser 45 mJ cm^−2 + X-rays 4 Gy 6 hours after PNB
NOM9 cells = assay: Clonogenic test (surviving fraction), normal cells; details: quadrapeutics, X-rays 4 Gy 6 hours after PNB
Excerpt: Evaluation of the long-term therapeutic response with a clonogenic test. We used EGFR-positive HN31 cells and EGFR-negative NOM9 cells. […] Thus the cells were exposed only to the internalized drug during the follow-up generation of PNBs. One to six hours afterwards, a single dose of X-rays (0-25 Gy) was applied.
To evaluate their colony-forming ability, the cells were trypsinized and replaced in 100 mm dishes in a free medium immediately after the treatment of samples. After 10 days of cultivation, the cells were stained with 0.5% crystal violet in absolute ethanol, and colonies with more than 50 cells were counted under a microscope. Plating efficiency was defined as the percentage of cells seeded that grew into colonies under a specific culture condition of a given cell line. […] All experiments were performed three times.

Structure (SMILES) | fold higher concentration required for drug alone vs PNB-enhanced release [1] | increase of cancer cell viability with plain (non-conjugated) nanocarriers compared with C225-conjugated carriers [1] | drug concentration required, drugs administered alone, to bring complex viability of cancer cells to the levels of PNB-enhanced release [1] | cancer cell growth (clonogenicity) after quadrapeutics, mode D+PNB+XR6 (HN31 cells) | viability of identically treated normal cells (NOM9 cells)
COc1cccc2c1C(=O)c1c(O)c3c(c(O)c1C2=O)C[C@@](O)(C(=O)CO)C[C@@H]3O[C@H]1C[C@H](N)[C@H](O)[C@H](C)O1 [doxorubicin] | 18 fold | several-fold | 85 µg/mL | – | –
CC(=O)O[C@H]1C(=O)[C@@]2(C)[C@H]([C@H](OC(=O)c3ccccc3)[C@]3(O)C[C@H](OC(=O)[C@H](O)[C@@H](NC(=O)c4ccccc4)c4ccccc4)C(C)=C1C3(C)C)[C@]1(OC(C)=O)CO[C@@H]1C[C@@H]2O [paclitaxel] | 15 fold | several-fold | 1 µg/mL | strong therapeutic effect | close to that of intact cells
